The record followed here is paper PMC11930913, “Anticancer, antioxidant and antibacterial potential of L-Glutaminase (Streptomyces roseolus strain ZKB1) capped silver and zinc oxide nanoparticles and its molecular characterization” (Bioresources and Bioprocessing, 2025).

The subject of this assay is T1, L-Glutaminase (Streptomyces roseolus strain ZKB1).
T1 construct: gene glsA
Put plainly: ammonia release by Nessler's reagent, […] nm; Lineweaver-Burk. As to conditions: free enzyme; phosphate buffer pH 7.0; 37 °C; 30 min; 25-100 mM substrate. The class given is cell-based.

For the compound `NC(=O)CC[C@H](N)C(=O)O` [L-glutamine], the Km worked out at 13.9 ± 0.8 mM.

In general, Km refers to the concentration of substrate that gives half-maximal velocity.
